In ChEMBL document CHEMBL5303711, “ECBD screening data for assay EOS300108” (2023) one finds CC50 data, which are given here for 93 compounds.

Active and inactive are the calls of the source. How the calls were made is not given here.

The data set can be described thus: Cytotoxicity activity against human HepG2 cells assessed by CellTiter-Glo luminescent cell viability assay. Type of data set: toxicity, cell-based. Set-up: assay stage confirmatory assay, source tissue liver. Conditions: HepG2 cells, read-out: IC50 relative. In general terms: ATP-based viability assays read luminescence as a measure of living cells.
Consider `O=c1c2ccccc2sn1-c1nccs1`, for which the CC50 is 50 µM (inactive).

`COc1ccccc1C(=O)Nc1nc2ccccc2[nH]1`: the CC50 was 2.8 µM (active).

`Cc1n[nH]c(C)c1CC(=O)Nc1cnn([C@@H](C)C2CC2)c1`: the CC50 is 50 µM (inactive). On to `C[C@@H]1CNCCN1S(=O)(=O)c1cccc(Br)c1`, for which the CC50 was 50 µM (inactive). As for `O=C(CCN1CCCCC1)c1cc2ccccc2o1`, the figure is 21.1 µM (inactive); as for `Cc1ccnc(NC(=O)c2csc(Cl)c2)n1`, 4.8 µM (active).

On to `CC1=CCN(C[C@H](O)COc2ccc3c(c2)OCO3)CC1`, for which the CC50 is 13.5 µM (inactive). Take `Cc1cc(C)nc(-n2ncc(Cl)c(Cl)c2=O)n1`: the CC50 was 3.8 µM (active). The figure for `Cc1nc(CCN[C@@H](C)c2ccc(S(N)(=O)=O)cc2)cs1` is 2.7 µM (active); for `CCN1CCC(NC[C@H](C)Oc2ccc(C(C)C)cc2)CC1` it is 7.1 µM (active); for `O=S(=O)(C[C@H]1CCOC1)NC1CCN(Cc2ccc(Cl)cc2)CC1` it is 12.9 µM (active). The figure for `c1ccc(-n2ccc(CNc3ncnc4c3ncn4C3CC3)n2)cc1` is 9.8 µM (active); for `CN1CCc2nc(C(=O)c3nc4c(s3)CN(C)CC4)sc2C1` it is 0.5 µM (active).

As for `CCOc1ncccc1C(=O)NCc1nccc2ccccc12`, the CC50 was 3.9 µM (active).

On to `CN(C)C(=O)c1cccc(CN(C)c2ccccc2CO)c1`, for which the CC50 was 10.9 µM (active). `Cc1ccc(NC(=O)Cc2ccc(-n3cccc3)cc2)nc1`: the CC50 is 1.6 µM (active). As to `COc1ccc2cc(CN3CCC(n4ccnc4)CC3)ccc2c1`, the CC50 is 11.5 µM (active). The figure for `COc1ccc(Nc2nc(CN3CCN(S(=O)(=O)c4cccs4)CC3)cs2)cc1` is 7.1 µM (active). As for `CN(C)CC1(O)CCCN(Cc2cc3ccccc3n2C)C1` (stereo not drawn), the figure is 11.8 µM (active); as for `CN(C)c1ccnc(NCCc2cc(F)cc3c2OCOC3)n1`, 10.2 µM (active). As for `Cc1ccccc1C[C@H](C)NCCN1CCC(N(C)C)CC1`, the figure is 13.7 µM (inactive); as for `CCc1oc2ccccc2c1CN(C)C(=O)C1(C)CCN(C)CC1`, 12 µM (active).

Turning to `O=C(Nc1ccc2c(c1)S(=O)(=O)C=C2)c1ncoc1-c1ccco1`, the CC50 was 10.9 µM (inactive). As for `C[C@H](Nc1nc(N)nc2ccccc12)c1ccccc1`, the figure is 3.9 µM (active); as for `Nc1nc(C2CC(N)C2)cc(N2CCC(OCc3ccccc3)CC2)n1` (stereo not drawn), 10.8 µM (active); as for `O=S(=O)(c1ccc(S(=O)(=O)N2CCOc3ccccc32)cc1)N1CCCC1`, 4.2 µM (active). In the case of `CCS(=O)(=O)c1ccc(NC(=O)c2ccc(F)c(S(=O)(=O)N3CCCCC3)c2)cc1`, the CC50 is 6.1 µM (inactive).

Turning to `Cn1nccc1CCNC(=O)c1csc(-c2ccoc2)n1`, the CC50 is 2 µM (active). The figure for `Cc1ccc2ncc(C(=O)Nc3ccc(Cl)cc3O)c(=O)n2c1` is 1.4 µM (inactive). As to `c1ccc(Oc2cccc(C[C@H]3CCCN3)c2)cc1`, the CC50 is 13.7 µM (inactive). Turning to `COc1ccc(OC)c(-c2cc(C(=O)Nc3ccccn3)no2)c1`, the CC50 was 0.8 µM (inactive).

As to `C[C@H](O)CN1CCC(CNCc2cccc(C(F)(F)F)c2)CC1`, the CC50 was 15.5 µM (inactive). The figure for `Cc1cc2sc(NC(=O)NCCNS(C)(=O)=O)nc2cc1F` is 2.3 µM (active); for `N#Cc1c(N)[nH]c2cc(Br)ccc12` it is 18 µM (inactive). The figure for `Cn1ccc(C(=O)Nc2cc(F)ccc2-n2cccn2)cc1=O` is 1.1 µM (inactive); for `CCOc1ccc(NC(=O)CNC[C@H]2CCCO2)cc1C` it is 40.3 µM (inactive); for `COCC(=O)N1CCCN(Cc2ccc3c4c(cccc24)C(=O)OC3)CC1` it is 13.4 µM (active). As to `CCOc1ccc(S(=O)(=O)NCC2(C)CCNCC2)c2ccccc12`, the CC50 was 10 µM (active). The figure for `Cc1cc(C)cc(N2CCN(C(=O)c3cnn4ccccc34)CC2=O)c1` is 0.7 µM (active); for `CC[C@H]1CN(c2ccccc2)CCN1c1ccnc(C(C)C)n1` it is 10.7 µM (active). As for `Fc1ccccc1CC1CCN(C[C@H]2[C@@H]3CNC[C@@H]32)CC1`, the figure is 8.8 µM (active). As for `COc1cc2c(cc1F)CN(Cc1cnc3ccccn13)CC2`, the figure is 2 µM (active); as for `Cc1ccc(NC(=O)c2cc3ccccc3c(=O)[nH]2)cc1`, 50 µM (inactive); as for `O=c1cc(O)c2c(-c3ccc(F)cc3)csc2[nH]1`, 2.7 µM (active). Turning to `COc1ccc(C(=O)N2CCN(c3ncnc4cccc(F)c34)CC2)cc1`, the CC50 was 9.4 µM (active). Take `COc1ccc([C@@H]2CCCN2c2cnn(C(C)(C)C)c(=O)c2Cl)cc1`: the CC50 was 11.1 µM (active).

For the compound `N#Cc1c[nH]c(C(=O)Nc2cc(C(F)(F)F)ccn2)c1`, the CC50 was 12.3 µM (active).

For `COc1ccc(C(=O)Nc2nc3cc4c(cc3s2)OCCO4)cn1`, the CC50 was 50 µM (inactive).

`CC(C)n1ncc2cc(NC(=O)c3cc4ccccc4cc3O)cnc21`: the CC50 was 10 µM (inactive). The figure for `CN(Cc1ccc2c(c1)OCCO2)C(=O)[C@H]1CCCN(S(N)(=O)=O)C1` is 50 µM (inactive).

Take `Cc1cnccc1NCCNC1CCN(c2ccc(F)c(F)c2)CC1`: the CC50 is 1.7 µM (active). As for `CN1CCCN(C(=O)Nc2ccc3c4c(cccc24)CC3)CC1`, the figure is 9.4 µM (active); as for `CS(=O)(=O)Nc1ccc(C(=O)N2CCN(CCOc3ccc(Cl)cc3)CC2)cc1`, 4.6 µM (active); as for `CC(C)(C)Cc1cc(NC(=O)[C@@H]2CCCN2C(=O)c2ccc3c(c2)OCO3)[nH]n1`, 0.8 µM (active). On to `Fc1ccc(C(CCNC[C@@H]2[C@H]3CNC[C@@H]23)c2ccco2)cc1` (stereo partly drawn), for which the CC50 was 7.1 µM (active). For `O=C(Cn1ncc(Cl)c(Cl)c1=O)NCc1ccccc1`, the CC50 is 5.4 µM (active).

As to `Cc1cccc(C(=O)Nc2nc(-c3nccn3C)cs2)c1`, the CC50 is 4.7 µM (active). Consider `COc1ccc(-c2nc(Cn3ncc(Cl)c(Cl)c3=O)co2)cc1`, for which the CC50 is 11 µM (active). The figure for `Cn1cc(S(=O)(=O)N2CCC[C@@H]2COc2ccc(F)cc2)cc1C(N)=O` is 0.6 µM (active). `COc1cc(OC)c(C2=CCN(C[C@H](O)COc3ccccc3F)CC2)c(OC)c1`: the CC50 is 6 µM (active). As for `COc1ccccc1OCCNc1ncnc2cc(F)ccc12`, the figure is 1.5 µM (active); as for `N#Cc1nccnc1Sc1nnc(COc2ccc(Cl)cc2)o1`, 2.9 µM (active); as for `C[C@H]1CN(C)c2ccccc2N(Cc2cc3ccccc3c(=O)[nH]2)C1`, 16.9 µM (inactive). With `c1cc(N2CCC[C@H]2C2CCCCC2)nc(C2CC2)n1`, the CC50 was 11.8 µM (active). Consider `CCCC[C@H](CC)CNC1CCN(C(C)C)CC1`, for which the CC50 is 7.8 µM (inactive). As for `Cc1cc2c(=O)nc(-c3cc(OCC(F)F)ccn3)[nH]c2s1`, the figure is 2.2 µM (active); as for `COc1ccc(C(N)=O)c(OCc2cn3ccccc3c2C#N)c1`, 10.7 µM (inactive); as for `C#CCNC(=O)c1ccccc1NCc1ccc(C#N)cc1OC`, 1 µM (active). As for `C[C@]1(c2cccc(C#N)c2)NC(=O)N(Cc2noc(-c3ccsc3)n2)C1=O`, the figure is 12.5 µM (inactive); as for `CCCOc1cc(S(=O)(=O)Nc2cccc(O)c2)ccc1Cl`, 12 µM (active). As for `C1=CC[C@@H](CNC2CCN(Cc3ccccc3)CC2)CC1`, the figure is 13 µM (active); as for `CNC(=O)c1c(N)sc2c1-c1ccccc1C2`, 19.3 µM (inactive). With `NC1CCN(S(=O)(=O)c2ccc([C@H]3[C@@H]4CCCC[C@@H]43)cc2)CC1`, the CC50 was 12 µM (active). In the case of `CCO[C@@H](CCNC(=O)c1csc(-c2ccoc2)n1)C(C)C`, the CC50 is 1.3 µM (active). Consider `CN[C@H]1CCCN(S(=O)(=O)c2ccc(Cl)cc2F)C1`, for which the CC50 was 17.1 µM (inactive). In the case of `Cc1cc(-c2ccc(O)cc2O)nc2cc3c(cc12)OCO3`, the CC50 is 26.3 µM (inactive). Take `COc1ncccc1NC(=O)c1n[nH]c2ccccc12`: the CC50 was 0.1 µM (active). With `CCn1c(Cn2ncc(Cl)c(Cl)c2=O)nc2cc(F)ccc21`, the CC50 was 3 µM (active). Turning to `COc1ccc(C(N)=O)c(OCc2cccc3cccnc23)c1`, the CC50 is 0.3 µM (active). Consider `CN(C)S(=O)(=O)c1ccc2oc(SCCOc3ccccc3)nc2c1`, for which the CC50 was 10 µM (active). As for `O=C(Nc1cccc(Cl)c1O)c1sccc1Br`, the figure is 0.8 µM (active); as for `CC[C@@](NC(=O)c1csc(-c2ccoc2)n1)(C(N)=O)C(C)C`, 5.2 µM (active).

On to `NC(=O)c1cc(-c2csc(Nc3ccccc3)n2)ccc1O`, for which the CC50 is 14.2 µM (inactive).

For `Cc1nc2ccccc2n1CCN1CCN(CCOc2ccccc2)CC1`, the CC50 was 7.5 µM (active). For the compound `CC(C)CCn1c(SCC(=O)NCCN(C(C)C)C(C)C)nc2ccccc2c1=O`, the CC50 is 12.5 µM (active). As for `O=C(N[C@H]1CCCc2sccc21)c1cccc2c1OCO2`, the figure is 6.5 µM (active); as for `Cn1c(=O)c2ccc(C(=O)Nc3nc(-c4ccco4)cs3)nc2n(C)c1=O`, 10.5 µM (inactive); as for `COc1cc(OC)cc(C(=O)N2CCN(Cn3ncc(Cl)c(Cl)c3=O)CC2)c1`, 23.4 µM (inactive).

Consider `CCc1nnsc1C(=O)Nc1cc(-c2cccs2)n[nH]1`, for which the CC50 was 4.8 µM (active). As for `CCN1CCN(c2ccc(C(=O)Nc3nc(-c4cccnc4)cs3)cc2)CC1`, the figure is 5.8 µM (active); as for `Cc1cccc2nc(C(=O)Nc3ccc(S(=O)(=O)Nc4nccs4)cc3)cn12`, 1.4 µM (inactive); as for `COc1ccc(OC2CCN(CC[C@H]3CCCCN3C)CC2)cc1`, 11.2 µM (inactive). `COc1ccc(-c2cnc3ccc(N4CCCC4)nn23)cc1OC`: the CC50 was 4.3 µM (active).
